Values joined by “and” are separate entries in the source; they are usually repeats but may differ in a detail not shown here. Equal entries are not always repeated. Where two headings read alike, the source gives them in different places.
Assays:
Venturia inaequalis = settings: in vivo; further: key: 5: clean, no disease; 4: trace of disease; 3: slight disease; 2: moderate disease; 1: severe disease; 0: like controls
Fusarium lycopersici = assay: Agar dilution plate; assay type: cell-based; settings: Fl; 100 ppm, 72 hours at 23° C
Protocol: (§1) Test compounds were incorporated in a Sabouraud's dextrose agar in an amount sufficient to provide the active ingredient in a concentration of about 100 ppm. A twenty-ml. sample of the agar mixture is placed in a petri dish and permitted to solidify. An agar sample is inoculated with the test organism set forth below and then covered and incubated for a period of about 72 hours at 23° C. After incubation, growth observations are made. The test results are recorded and the test is repeated twice for the purpose of comparison.
(§2) The data obtained with a variety of test organisms is shown in the table below, and ratings are shown as 0 or 5. O indicates no control, 5 indicates 100% effectiveness of the test compound against the specified organism.

Aspergillus niger [1] = assay: Agar dilution plate; assay type: cell-based; settings: An; 100 ppm, 72 hours at 23° C
Protocol: as §1, §2

Monilinia fructicola [2] = assay: Agar dilution plate; assay type: cell-based; settings: Mf; 100 ppm, 72 hours at 23° C
Protocol: as §1, §2

Rhizoctonia solani = assay: Agar dilution plate; assay type: cell-based; settings: Rs; 100 ppm, 72 hours at 23° C
Protocol: as §1, §2

Pythium de Baryanum = assay: Agar dilution plate; assay type: cell-based; settings: Pd; 100 ppm, 72 hours at 23° C
Protocol: as §1, §2

Verticillium albo-atrum = assay: Agar dilution plate; assay type: cell-based; settings: Va; 100 ppm, 72 hours at 23° C
Protocol: as §1, §2
Va= Verticillium albo-atrum

[3] = tested on: Collectotrichum lagenarium; assay: Agar dilution plate; assay type: cell-based; settings: Cl; 100 ppm, 72 hours at 23° C
Protocol: as §1, §2
Cl= Collectotrichum lagenarium

Pseudomonas solaracaerum = assay type: cell-based; settings: 100 ppm, 72 hours at 23° C
Piricularia oryzae = assay type: in vivo; design: scale not given here; settings: Rice Blast, five days
[4] = tested on: Stemphylium sarcinaeforme; assay: Agar dilution plate; assay type: cell-based; settings: Ss; 100 ppm, 72 hours at 23° C
Protocol: as §1, §2
Ss= Stemphylium sarcinaeforme

Phytophthora infestans = assay type: in vivo; design: scale not given here; settings: Tomato Late Blight, five days
[5] = tested on: Stemphylium sarcinaeforme; assay: Spore germination inhibition; assay type: cell-based; settings: Stemphylium sarciniforme; for inhibition at 100 ppm: 24 h, read-out: % Inhibition of Spore Germination; for inhibition at 1 ppm / inhibition at 10 ppm: 24 hours
From the text: (§3) The test procedure involves the preparation of a 100, 10 or 1 ppm. suspension of test compound in water. The solutions are placed in one dram "opticlear" vials and separately inoculated with one drop of a spore suspension prepared from seven-day cultures of Aspergillus niger and 14-day old cultures of Monilinia fructicola and Stemphylium sarcinaeforme,all grown on potato-dextrose agar. The vials containing the separately inoculated solutions of test compounds are then capped and placed on a rotating tumbler for 24 hours to assure contact of the organism with the test compound. After 24 hours, the vials are removed and examined for inhibition of […].

Aspergillus niger [6] = assay: Spore germination inhibition; assay type: cell-based; settings: 24 hours
From the text: as §3

Monilinia fructicola [7] = assay: Spore germination inhibition; assay type: cell-based; settings: for inhibition at 1 ppm / inhibition at 10 ppm: 24 hours; for inhibition at 100 ppm: 24 h, read-out: % Inhibition of Spore Germination
From the text: as §3

Row | Compound | disease control index (Venturia inaequalis) | Agar Dilution Plate rating (Fusarium lycopersici) | Agar Dilution Plate rating (Aspergillus niger [1]) | Agar Dilution Plate rating (Monilinia fructicola [2]) | Agar Dilution Plate rating (Rhizoctonia solani) | Agar Dilution Plate rating (Pythium de Baryanum) | Agar Dilution Plate rating (Verticillium albo-atrum) | Agar Dilution Plate rating [3] | Agar Dilution Plate rating (Pseudomonas solaracaerum) | disease control index (Piricularia oryzae; 150 ppm) | disease control index (Piricularia oryzae; 300 ppm) | disease control index (Piricularia oryzae; 600 ppm) | Agar Dilution Plate rating [4] | disease control index (Phytophthora infestans; 150 ppm) | disease control index (Phytophthora infestans; 300 ppm) | disease control index (Phytophthora infestans; 600 ppm) | disease control index (Phytophthora infestans; 1200 ppm) | disease control index (Piricularia oryzae; at 75 ppm) | disease control index (Piricularia oryzae; at 500 ppm) | disease control index (Phytophthora infestans; at 500 ppm) | further results
1 | CCN(CC)C(=S)SCC(CSC(=S)N(CC)CC)[N+](=O)[O-] [Example 2, 2-Nitrotrimethylene Diethyldithiocarbamate] | 5 | 0 | 0 | 0 | 0 | 0 | 0 | 5 (100% effectiveness of the test compound against the specified organism) | 0 | 4 | 4 | 5 | 0 | 4 | 4 | 5 | 5 |  |  |  | disease control index (Piricularia oryzae; 1200 ppm): 5
2 | CN(C)CC1(CSC(=S)N(C)C)SC(=S)NC1=O (stereo not shown) [Example 12, Dimethyldithiocarbamic Acid S-Ester with 5-(Dimethylaminomethy)-5-(mercaptomethyl)rhodanine] | 5 |  |  |  |  |  |  |  |  |  | 5 |  |  | 5 | 5 |  |  |  |  |  | 
3 | CCN(CC)C(=S)SC(C[N+](=O)[O-])c1ccccc1 (stereo not drawn) [Example 19, α-(Nitromethyl)benzyl Diethyldithiocarbamate] | 5 and 0 | 0 | 0 | 5 (100% effectiveness of the test compound against the specified organism) | 0 | 0 | 0 | 0 | 0 | 3 | 3 | 5 | 0 | 3 | 3 | 3 | 3 |  |  |  | disease control index (Piricularia oryzae; 1200 ppm): 5
4 | CN(C)C(=S)SC(C[N+](=O)[O-])c1ccc(C(C[N+](=O)[O-])SC(=S)N(C)C)cc1 (stereo not drawn) [Example 20, α,α'-Bis(nitromethyl)-p-phenylenedimethylene Dimethyldithiocarbamate] |  |  |  |  |  |  |  |  |  |  |  |  |  | 3 | 3 | 4 | 5 |  |  |  | 
5 | COc1cccc(C(C[N+](=O)[O-])SC(=S)N(C)C)c1OC(C)=O (stereo not drawn) [Example 21, 2-Acetoxy-3-methoxy-α-(nitromethyl)benzyl Dimethyldithiocarbamate] | 4 |  |  |  |  |  |  |  |  |  |  |  |  |  |  |  |  | 3 | 4 | 5 | 
6 | CN(C)C(=S)SC(C[N+](=O)[O-])c1cc([N+](=O)[O-])ccc1Cl (stereo not drawn) [Example 23, 2-Chloro-5-nitro-α-(nitromethyl)benzyl Dimethyldithiocarbamate] | 4 |  |  |  |  |  |  |  |  |  |  |  |  |  |  |  |  | 3 | 4 | 5 | disease control index (Phytophthora infestans; at 100 ppm): 5
7 | CC(=O)Oc1ccc(C(C[N+](=O)[O-])SC(=S)N(C)C)cc1 (stereo not drawn) [Example 24, 4-Acetoxy-α-(nitromethyl)benzyl Dimethyldithiocarbamate] | 5 | 0 | 0 | 5 (100% effectiveness of the test compound against the specified organism) | 0 | 0 | 5 (100% effectiveness of the test compound against the specified organism) | 5 (100% effectiveness of the test compound against the specified organism) | 0 |  |  |  | 5 (100% effectiveness of the test compound against the specified organism) |  |  |  |  | 3 | 4 | 5 | inhibition at 100 ppm [5]: 0%; inhibition at 1 ppm (Aspergillus niger [6]): 0%; inhibition at 10 ppm (Aspergillus niger [6]): 100%; inhibition at 100 ppm (Aspergillus niger [6]): 100%; inhibition at 1 ppm (Monilinia fructicola [7]): 0%; inhibition at 10 ppm (Monilinia fructicola [7]): 100%; inhibition at 100 ppm (Monilinia fructicola [7]): 100%; disease control index (Phytophthora infestans; at 100 ppm): 3
8 | COc1ccc(C(C[N+](=O)[O-])SC(=S)N(C)C)cc1 (stereo not drawn) [Example 29, p-Methoxy-α-(nitromethyl)benzyl Dimethyldithiocarbamate] | 5 |  |  |  |  |  |  |  |  | 4 | 5 | 5 |  | 5 | 5 | 5 | 5 |  |  |  | disease control index (Piricularia oryzae; 1200 ppm): 5; inhibition at 100 ppm [5]: 100%; inhibition at 1 ppm [5]: 0%; inhibition at 10 ppm [5]: 100%; inhibition at 1 ppm (Aspergillus niger [6]): 0%; inhibition at 10 ppm (Aspergillus niger [6]): 0%; inhibition at 100 ppm (Aspergillus niger [6]): 100%; inhibition at 1 ppm (Monilinia fructicola [7]): 0%; inhibition at 10 ppm (Monilinia fructicola [7]): 100%; inhibition at 100 ppm (Monilinia fructicola [7]): 100%
9 | CN(C)C(=S)SC(C[N+](=O)[O-])c1cccc2ccccc12 (stereo not shown) [Example 31, 1-Naphthyl-2-nitroethyl Dimethyldithiocarbamate] | 4 | 0 | 0 | 5 (100% effectiveness of the test compound against the specified organism) | 5 (100% effectiveness of the test compound against the specified organism) | 5 (100% effectiveness of the test compound against the specified organism) | 5 (100% effectiveness of the test compound against the specified organism) | 5 (100% effectiveness of the test compound against the specified organism) | 0 |  |  |  | 5 (100% effectiveness of the test compound against the specified organism) |  |  |  |  | 4 | 5 | 5 | inhibition at 100 ppm [5]: 100%; inhibition at 1 ppm [5]: 0%; inhibition at 10 ppm [5]: 0%; inhibition at 1 ppm (Aspergillus niger [6]): 0%; inhibition at 10 ppm (Aspergillus niger [6]): 0%; inhibition at 100 ppm (Aspergillus niger [6]): 100%; inhibition at 1 ppm (Monilinia fructicola [7]): 0%; inhibition at 10 ppm (Monilinia fructicola [7]): 0%; inhibition at 100 ppm (Monilinia fructicola [7]): 100%; disease control index (Phytophthora infestans; at 100 ppm): 5
10 | CN(C)C(=S)SC(C[N+](=O)[O-])c1ccco1 (stereo not drawn) [Example 32, α-(Nitromethyl)furfuryl Dimethyldithiocarbamate] | 5 and 0 |  |  |  |  |  |  |  |  | 0 | 0 | 5 |  | 4 | 4 | 5 | 5 |  |  |  | disease control index (Piricularia oryzae; 1200 ppm): 5
11 | CN(C)C(=S)SC(C[N+](=O)[O-])c1ccc(Cl)s1 (stereo not drawn) [Example 34, 5-Chloro-α-(nitromethyl)-2-thenyl Dimethyldithiocarbamate] |  | 0 | 0 | 0 | 5 (100% effectiveness of the test compound against the specified organism) | 0 | 0 | 5 (100% effectiveness of the test compound against the specified organism) | 0 |  |  |  | 0 |  |  |  |  | 1 | 3 | 3 | inhibition at 100 ppm [5]: 100%; inhibition at 1 ppm [5]: 0%; inhibition at 10 ppm [5]: 100%; inhibition at 1 ppm (Aspergillus niger [6]): 0%; inhibition at 10 ppm (Aspergillus niger [6]): 100%; inhibition at 100 ppm (Aspergillus niger [6]): 100%; inhibition at 1 ppm (Monilinia fructicola [7]): 0%; inhibition at 10 ppm (Monilinia fructicola [7]): 100%; inhibition at 100 ppm (Monilinia fructicola [7]): 100%
